Our source for the Ki and EC50 values is patent US9073855B2, “BCL-2 selective apoptosis-inducing agents for the treatment of cancer and immune diseases” (AbbVie Inc., priority 2008, dated 2015).

Test [1] concerns the target GST-Bcl-XL (Homo sapiens, UniProt Q07817). Description: TR-FRET binding assay, GST-Bcl-XL with F-Bak peptide probe. As to conditions: TR-FRET Binding Affinity, GST-Bcl-XL, F-Bak peptide probe. Put shortly:
(§1)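 Ki was derived with Wang's equation for competitive binding of two ligands. The read-out was time-resolved fluorescence after a 3 h room-temperature incubation, using a Tb-labelled antibody donor and the F-Bak peptide acceptor (excitation 340/35 nm). Test compounds entered as DMSO serial dilutions starting at 50 μM, which was the 2× concentration.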
Background: Time-resolved FRET reads energy transfer from a long-lived donor to a nearby acceptor.

In test [2] the test system is FL5.12/Bcl-2 cells. Description: FL5.12/Bcl-2 cell viability assay under IL-3 withdrawal (CellTitre Glo). The test is classed as cell-based, murine. Conditions: Mus musculus, IL-3 withdrawn 48 hrs, then 24 hrs with compound. Put shortly: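 Viability measured by CellTitre Glo after FL5.12/Bcl-2 murine cells, starved of IL-3 for 48 hrs, were treated with compounds for another 24 hrs. Killing reflects inhibition of Bcl-2 sequestration of Bim and Puma.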

The target of test [3] is GST-Bcl-2 (Homo sapiens, UniProt P10415). The experiment in a line: TR-FRET binding assay, GST-Bcl-2 with F-Bak peptide probe. Conditions: TR-FRET Binding Affinity, GST-Bcl-2, F-Bak peptide probe. Put shortly: as §1
Sequence of GST-Bcl-2 (P10415 whole entry): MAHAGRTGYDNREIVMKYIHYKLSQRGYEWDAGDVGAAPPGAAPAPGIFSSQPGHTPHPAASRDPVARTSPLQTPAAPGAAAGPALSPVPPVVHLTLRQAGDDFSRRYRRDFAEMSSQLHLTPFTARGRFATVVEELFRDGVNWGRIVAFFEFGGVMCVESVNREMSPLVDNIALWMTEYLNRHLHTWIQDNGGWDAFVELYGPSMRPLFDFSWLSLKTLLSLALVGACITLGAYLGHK

Sequence of GST-Bcl-XL (Q07817 whole entry): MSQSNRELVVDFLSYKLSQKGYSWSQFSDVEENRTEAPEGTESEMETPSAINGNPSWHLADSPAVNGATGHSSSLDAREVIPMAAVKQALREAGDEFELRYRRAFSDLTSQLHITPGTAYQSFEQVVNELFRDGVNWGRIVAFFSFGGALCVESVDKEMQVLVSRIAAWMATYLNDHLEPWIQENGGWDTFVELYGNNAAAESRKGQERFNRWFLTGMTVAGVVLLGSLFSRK

`C[C@@H](c1ccccc1-c1ccc(Cl)cc1)N1CCN(c2ccc(C(=O)NS(=O)(=O)c3ccc(NCC4CCOCC4)c([N+](=O)[O-])c3)c(Oc3cccc4[nH]ccc34)c2)CC1` [Example 256, 4-{4-[(1S)-1-(4′-chloro-1,1′-biphenyl-2-yl)ethyl]piperazin-1-yl}-2-(1H-indol-4-yloxy)-N-({3-nitro-4-[(tetrahydro-2H-pyran-4-ylmethyl)amino]phenyl}sulfonyl)benzamide]: the Ki (commonly a dissociation constant, usually derived from enzyme kinetics or from competition with a known ligand) in test [1] is over 660 nM; in test [3], 0.12 nM. In test [2], the EC50 (as a rule, the midpoint of the concentration-response curve) stood at 8.89 nM.

Turning to `CC(C1=C(c2ccc(Cl)cc2)CC(C)(C)CC1)N1CCN(c2ccc(C(=O)NS(=O)(=O)c3ccc(NCCCN4CCOCC4)c([N+](=O)[O-])c3)c(Oc3ccc4[nH]ccc4c3)c2)CC1` (stereo not drawn) [Example 257, 4-(4-{1-[2-(4-chlorophenyl)-4,4-dimethylcyclohex-1-en-1-yl]ethyl}piperazin-1-yl)-2-(1H-indol-5-yloxy)-N-({4-[(3-morpholin-4-ylpropyl)amino]-3-nitrophenyl}sulfonyl)benzamide], the figures for the Ki in test [1] and in test [3] were 17.1 nM and 0.171 nM, respectively. The EC50 in test [2] amounted to 9.34 nM.

Take `CC(C1=C(c2ccc(Cl)cc2)CC(C)(C)CC1)N1CCN(c2ccc(C(=O)NS(=O)(=O)c3ccc(NC4CCN(C5CCOCC5)CC4)c([N+](=O)[O-])c3)c(Oc3ccc4[nH]ccc4c3)c2)CC1` (stereo not drawn) [Example 258, 4-(4-{1-[2-(4-chlorophenyl)-4,4-dimethylcyclohex-1-en-1-yl]ethyl}piperazin-1-yl)-2-(1H-indol-5-yloxy)-N-({3-nitro-4-[(1-tetrahydro-2H-pyran-4-ylpiperidin-4-yl)amino]phenyl}sulfonyl)benzamide]: the results for the Ki in test [1] and in test [3] were 4.08 nM and 0.048 nM, respectively. In addition, the EC50 in test [2] worked out at 9.11 nM.

Turning to `CC1(C)CCC(CN2CCN(c3ccc(C(=O)NS(=O)(=O)c4ccc(NCC5CCCCC5)c([N+](=O)[O-])c4)c(Oc4ccc5[nH]ccc5c4)c3)CC2)=C(c2ccc(Cl)cc2)C1` [Example 259, 4-(4-{[2-(4-chlorophenyl)-4,4-dimethylcyclohex-1-en-1-yl]methyl}piperazin-1-yl)-N-({4-[(cyclohexylmethyl)amino]-3-nitrophenyl}sulfonyl)-2-(1H-indol-5-yloxy)benzamide], the Ki in test [1] was over 660 nM; in test [3] it was 1.99 nM. Besides, the EC50 in test [2] is over 500 nM.

In the case of `CC1(C)CCC(CN2CCN(c3ccc(C(=O)NS(=O)(=O)c4ccc(NN5CCOCC5)c([N+](=O)[O-])c4)c(Oc4ccc5[nH]ccc5c4)c3)CC2)=C(c2ccc(Cl)cc2)C1` [Example 260, 4-(4-{[2-(4-chlorophenyl)-4,4-dimethylcyclohex-1-en-1-yl]methyl}piperazin-1-yl)-2-(1H-indol-5-yloxy)-N-{[4-(morpholin-4-ylamino)-3-nitrophenyl]sulfonyl}benzamide], the figures for the Ki in test [1] and in test [3] were over 660 nM and 1.09 nM, respectively. For the same compound, the EC50 in test [2] is 59.4 nM.

Regarding `CC1(C)CCC(CN2CCN(c3ccc(C(=O)NS(=O)(=O)c4ccc(NN5CCOCC5)c([N+](=O)[O-])c4)c(Oc4cccc5[nH]ccc45)c3)CC2)=C(c2ccc(Cl)cc2)C1` [Example 262, 4-(4-{[2-(4-chlorophenyl)-4,4-dimethylcyclohex-1-en-1-yl]methyl}piperazin-1-yl)-2-(1H-indol-4-yloxy)-N-{[4-(morpholin-4-ylamino)-3-nitrophenyl]sulfonyl}benzamide], the Ki was over 660 nM in test [1] and 3 nM in test [3]. For the same compound, in test [2], the EC50 was determined as 176 nM.

With `CC1(C)CCC(CN2CCN(c3ccc(C(=O)NS(=O)(=O)c4ccc(NC5CCOCC5)c([N+](=O)[O-])c4)c(Oc4ccc5[nH]ccc5c4)c3)CC2)=C(c2ccc(Cl)cc2)C1` [Example 263, 4-(4-{[2-(4-chlorophenyl)-4,4-dimethylcyclohex-1-en-1-yl]methyl}piperazin-1-yl)-2-(1H-indol-5-yloxy)-N-{[3-nitro-4-(tetrahydro-2H-pyran-4-ylamino)phenyl]sulfonyl}benzamide], the Ki was over 660 nM in test [1] and 0.316 nM in test [3]. Also, the EC50 in test [2] is 28.4 nM.

On to `CC1(C)CCC(CN2CCN(c3ccc(C(=O)NS(=O)(=O)c4ccc(NCC5(C)COC5)c([N+](=O)[O-])c4)c(Oc4ccc5[nH]ccc5c4)c3)CC2)=C(c2ccc(Cl)cc2)C1` [Example 264, 4-(4-{[2-(4-chlorophenyl)-4,4-dimethylcyclohex-1-en-1-yl]methyl}piperazin-1-yl)-2-(1H-indol-5-yloxy)-N-[(4-{[(3-methyloxetan-3-yl)methyl]amino}-3-nitrophenyl)sulfonyl]benzamide], for which the inhibition constant Ki in test [1] is over 660 nM; in test [3] it was 0.235 nM. Besides, the EC50 in test [2] came out at 25.7 nM.

For `COC1CCC(Nc2ccc(S(=O)(=O)NC(=O)c3ccc(N4CCN(CC5=C(c6ccc(Cl)cc6)CC(C)(C)CC5)CC4)cc3Oc3ccc4[nH]ccc4c3)cc2[N+](=O)[O-])CC1` (stereo not drawn) [Example 265, 4-(4-{[2-(4-chlorophenyl)-4,4-dimethylcyclohex-1-en-1-yl]methyl}piperazin-1-yl)-2-(1H-indol-5-yloxy)-N-({4-[(4-methoxycyclohexyl)amino]-3-nitrophenyl}sulfonyl)benzamide], the Ki is over 660 nM in test [1] and 1.7 nM in test [3]. Moreover, the EC50 in test [2] was found to be 244 nM.

`CC1(C)CCC(CN2CCN(c3ccc(C(=O)NS(=O)(=O)c4ccc(NCCCN5CCS(=O)(=O)CC5)c([N+](=O)[O-])c4)c(Oc4ccc5[nH]ccc5c4)c3)CC2)=C(c2ccc(Cl)cc2)C1` [Example 266, 4-(4-{[2-(4-chlorophenyl)-4,4-dimethylcyclohex-1-en-1-yl]methyl}piperazin-1-yl)-N-[(4-{[3-(1,1-dioxidothiomorpholin-4-yl)propyl]amino}-3-nitrophenyl)sulfonyl]-2-(1H-indol-5-yloxy)benzamide]: the Ki in test [1] was over 660 nM; in test [3], 0.183 nM. Besides, the EC50 in test [2] was found to be 11.5 nM.

With `CC1(C)CCC(CN2CCN(c3ccc(C(=O)NS(=O)(=O)c4ccc(NCCN5CCCCC5=O)c([N+](=O)[O-])c4)c(Oc4ccc5[nH]ccc5c4)c3)CC2)=C(c2ccc(Cl)cc2)C1` [Example 267, 4-(4-{[2-(4-chlorophenyl)-4,4-dimethylcyclohex-1-en-1-yl]methyl}piperazin-1-yl)-2-(1H-indol-5-yloxy)-N-[(3-nitro-4-{[2-(2-oxopiperidin-1-yl)ethyl]amino}phenyl)sulfonyl]benzamide], the Ki in test [1] is over 660 nM; in test [3], 0.454 nM. The EC50 in test [2] turned out to be 56.4 nM.

On to `CC1(C)CCC(CN2CCN(c3ccc(C(=O)NS(=O)(=O)c4ccc(NCCN5CCNC5=O)c([N+](=O)[O-])c4)c(Oc4ccc5[nH]ccc5c4)c3)CC2)=C(c2ccc(Cl)cc2)C1` [Example 268, 4-(4-{[2-(4-chlorophenyl)-4,4-dimethylcyclohex-1-en-1-yl]methyl}piperazin-1-yl)-2-(1H-indol-5-yloxy)-N-[(3-nitro-4-{[2-(2-oxoimidazolidin-1-yl)ethyl]amino}phenyl)sulfonyl]benzamide], for which the Ki came out at 145 nM in test [1] and 0.092 nM in test [3]. Besides, the EC50 in test [2] turned out to be 68.2 nM.

`CC1(C)CCC(CN2CCN(c3ccc(C(=O)NS(=O)(=O)c4ccc(N5CCOCC5)c([N+](=O)[O-])c4)c(Oc4ccc5[nH]ccc5c4)c3)CC2)=C(c2ccc(Cl)cc2)C1` [Example 270, 4-(4-{[2-(4-chlorophenyl)-4,4-dimethylcyclohex-1-en-1-yl]methyl}piperazin-1-yl)-2-(1H-indol-5-yloxy)-N-[(4-morpholin-4-yl-3-nitrophenyl)sulfonyl]benzamide]: the inhibition constant Ki in test [1] was over 660 nM; in test [3] it was 3.31 nM. Besides, the EC50 in test [2] amounted to 429 nM.

With `COC1CCN(c2ccc(S(=O)(=O)NC(=O)c3ccc(N4CCN(CC5=C(c6ccc(Cl)cc6)CC(C)(C)CC5)CC4)cc3Oc3ccc4[nH]ccc4c3)cc2[N+](=O)[O-])CC1` [Example 271, 4-(4-{[2-(4-chlorophenyl)-4,4-dimethylcyclohex-1-en-1-yl]methyl}piperazin-1-yl)-2-(1H-indol-5-yloxy)-N-{[4-(4-methoxypiperidin-1-yl)-3-nitrophenyl]sulfonyl}benzamide], the Ki was over 660 nM in test [1] and 6.16 nM in test [3]. The EC50 in test [2] was over 500 nM.

For `O=C(NS(=O)(=O)c1ccc(NCC2CCOCC2)c([N+](=O)[O-])c1)c1ccc(N2CCN(CC3=C(c4ccc(Cl)cc4)CCC(N4CCCC4)C3)CC2)cc1Oc1ccc2[nH]ccc2c1` (stereo not drawn) [Example 272, 4-(4-{[2-(4-chlorophenyl)-5-pyrrolidin-1-ylcyclohex-1-en-1-yl]methyl}piperazin-1-yl)-2-(1H-indol-5-yloxy)-N-({3-nitro-4-[(tetrahydro-2H-pyran-4-ylmethyl)amino]phenyl}sulfonyl)benzamide], the Ki in test [1] is over 660 nM; in test [3], 0.011 nM. For the same compound, the EC50 in test [2] is 194 nM.

For `CC1(C)CCC(CN2CCN(c3ccc(C(=O)NS(=O)(=O)c4ccc(NCCN5CCNC(=O)C5)c([N+](=O)[O-])c4)c(Oc4ccc5[nH]ccc5c4)c3)CC2)=C(c2ccc(Cl)cc2)C1` [Example 273, 4-(4-{[2-(4-chlorophenyl)-4,4-dimethylcyclohex-1-en-1-yl]methyl}piperazin-1-yl)-2-(1H-indol-5-yloxy)-N-[(3-nitro-4-{[2-(3-oxopiperazin-1-yl)ethyl]amino}phenyl)sulfonyl]benzamide], the results for the Ki in test [1] and in test [3] were 181 nM and 0.076 nM, respectively. Also, the EC50 in test [2] was found to be 70 nM.
